Reference: article PMC11359702, “Synthesis and Biochemical Evaluation of Ethanoanthracenes and Related Compounds: Antiproliferative and Pro-Apoptotic Effects in Chronic Lymphocytic Leukemia (CLL)” (Pharmaceuticals, 2024)
pIC50: −log10 of the molar value. Several values for one entry are separate records, joined by “and”; a condition that tells them apart may be missing. Identical values can stand only once. Like-named read-outs stand apart in the source and are kept apart here.

How the values were obtained:
[1] = tested on: HG-3 and PGA-1 cell lines; experiment: alamarBlue cell viability assay, mean of both CLL cell lines; format: cell-based, human; settings: mean of HG-3 and PGA-1
PGA-1 cells [2] = experiment: alamarBlue cell viability assay; settings: for pIC50: read-out: PGA-1 IC50; for viability at 10 µM: read-out: cell viability
HG-3 cells [3] = experiment: alamarBlue cell viability assay; settings: for pIC50 / viability at 10 µM: HG-3, 24 h; for pIC50: read-out: HG-3 IC50; for viability at 10 µM: read-out: cell viability, HG-3, 10 µM, 24 h, vehicle = 100%
HG-3 cells [4] = tested on: HG-3 cells
PGA-1 cells [5] = settings: 10 µM
[6] = HPLC stability study in phosphate buffers; format: physicochemical; settings: 37 °C
Method: A preliminary stability study was carried out on selected chalcones, maleic anhydride and maleimide adducts at acidic, neutral and basic conditions (pH 4, 7.4 and 9) using HPLC to determine suitability for further preclinical investigations. […] A possible degradation route for the maleimide 23n could be through the hydrolysis of the cyclic imide of the maleimide ring, leading to the resultant amic acid product.
All samples were analyzed using acetonitrile–water (80:20%, 70:30%, 60:40% isocratic) as the mobile phase over 10 min and a flow rate of 1 mL/min. Stock solutions were prepared by dissolving 5 mg of compounds in a mobile phase ([(acetonitrile (80%): water (20%)], 10 mL). Anhydride 22h was not detected at its retention time of 5.2 min at pH 9.0. The data presented represent the results of single experiments.
The HPLC stability studies for compounds 21a, 21i, 22h, 23a, 23g, 23n, 24a, 24h, 26a and 26n were performed using a Symmetry® column (C18, 5 µm, 4.6 × 150 mm), a Waters 2487 Dual Wavelength Absorbance detector, and an HPLC pump: Waters 1525 binary and Autosampler; Waters 717 plus (Waters Corporation, Milford, MA, USA), mobile phase [(acetonitrile (80%) and water (20%)] with a typical run time of 10 min and a flow rate of 1 mL/min with detection at 254 nm. The selected compounds 21a, 21i, 22h, 23a, 23g, 23n, 24a, 24h, 26a and 26n (5 mg) in the mobile phase (10 mL) provided the stock solution for the analysis. The phosphate buffers were prepared at pH values of 4, 7.4 and 9, as described in the British Pharmacopoeia monograph 2019. The stock solution (30 µL) was added to the appropriate buffer (1 mL) and retained at 37 °C. Samples were then analyzed over the following 24-h period at selected time intervals (t = 0 min, 5 min, 30 min, 60 min, 90 min, 120 min and 24 h).

COc1c2ccccc2c(/C=C/[N+](=O)[O-])c2ccccc12 [Compound 18b, reference compound]
pIC50 ([1]; Homo sapiens, CLL cell): 6.14

O=C1C2C3c4ccccc4C(C=C[N+](=O)[O-])(c4ccccc43)C2C(=O)N1c1ccc(Cl)cc1 (stereo not shown) [Compound 20b]
pIC50 (PGA-1 cells [2]; Homo sapiens, 24 h): 6.18 | viability at 10 µM (PGA-1 cells [2]; Homo sapiens, 24 h): 3% | pIC50 ([1]; Homo sapiens, CLL cell): 6.12 | pIC50 (HG-3 cells [3]; Homo sapiens): 6.07 | viability at 10 µM (HG-3 cells [3]; Homo sapiens): 8%

O=C(c1ccccc1)c1ccc(N2C(=O)C3C4c5ccccc5C(/C=C/[N+](=O)[O-])(c5ccccc54)C3C2=O)cc1 (stereo not shown) [Compound 20c]
pIC50 (PGA-1 cells [2]; Homo sapiens, 24 h): 6.06 | viability at 10 µM (PGA-1 cells [2]; Homo sapiens, 24 h): 4% | pIC50 ([1]; Homo sapiens, CLL cell): 6.10 | pIC50 (HG-3 cells [3]; Homo sapiens): 6.15 | viability at 10 µM (HG-3 cells [3]; Homo sapiens): 11%

O=C1NC(=O)C2C1C1c3ccccc3C2(C=C[N+](=O)[O-])c2ccccc21 (stereo not shown) [Compound 20d]
pIC50 (PGA-1 cells [2]; Homo sapiens, 24 h): 6.12 | viability at 10 µM (PGA-1 cells [2]; Homo sapiens, 24 h): 17% | pIC50 ([1]; Homo sapiens, CLL cell): 6.11 | pIC50 (HG-3 cells [3]; Homo sapiens): 6.11 | viability at 10 µM (HG-3 cells [3]; Homo sapiens): 14 to 43%

N#CC1CC2c3ccccc3C1(/C=C/[N+](=O)[O-])c1ccccc12 (stereo not shown) [Compound 20e]
pIC50 (PGA-1 cells [2]; Homo sapiens, 24 h): 5.96 | viability at 10 µM (PGA-1 cells [2]; Homo sapiens, 24 h): 3% | pIC50 ([1]; Homo sapiens, CLL cell): 5.85 | pIC50 (HG-3 cells [3]; Homo sapiens): 5.80 | viability at 10 µM (HG-3 cells [3]; Homo sapiens): 14 to 43%

COc1ccc(C(=O)/C=C/C23c4ccccc4C(c4ccccc42)C2C(=O)NC(=O)C23)cc1 (stereo not shown) [Compound 23i, (E)-9-(3-(4-Methoxyphenyl)-3-oxoprop-1-en-1-yl)-9,10-dihydro-9,10-[3,4]epipyrroloanthracene-12,14-dione]
pIC50 (PGA-1 cells [2]; PGA-1, 24 h): 4.90 | pIC50 [1]: 4.94 | pIC50 (HG-3 cells [3]): 4.99

COc1cc(C(=O)/C=C/C23c4ccccc4C(c4ccccc42)C2C(=O)NC(=O)C23)cc(OC)c1OC (stereo not shown) [Compound 23k, (E)-9-(3-Oxo-3-(3,4,5-trimethoxyphenyl)prop-1-en-1-yl)-9,10-dihydro-9,10-[3,4] epipyrroloanthracene-12,14-dione]
pIC50 (PGA-1 cells [2]; PGA-1, 24 h): 5.27 | pIC50 [1]: 5.28 | pIC50 (HG-3 cells [3]): 5.31

O=C(/C=C/C12c3ccccc3C(c3ccccc31)C1C(=O)NC(=O)C12)c1ccc2ccccc2c1 (stereo not shown) [Compound 23p]
cell viability (HG-3 cells [4]; 1 µM): 46% | cell viability (HG-3 cells [4]; 10 µM): 0% | cell viability (PGA-1 cells [5]): 0% | pIC50 (PGA-1 cells [2]; PGA-1, 24 h): 5.89 | pIC50 [1]: 5.87 | pIC50 (HG-3 cells [3]): 5.85

O=C(C=CC12c3ccccc3C(c3ccccc31)C1C(=O)N(c3ccccc3)C(=O)C12)c1ccc([N+](=O)[O-])cc1 (stereo not shown) [Compound 24b, 9-(E)-3-(4-Nitrophenyl)-3-oxoprop-1-en-1-yl)-13-phenyl-9,10-dihydro-9,10-[3,4]epipyrroloanthracene-12,14-dione]
cell viability (HG-3 cells [4]; 10 µM): 10% | cell viability (PGA-1 cells [5]): 22%

O=C(C=CC12c3ccccc3C(c3ccccc31)C1C(=O)N(c3ccccc3)C(=O)C12)c1ccco1 (stereo not shown) [Compound 24o, 9-(E)-3-(Furan-2-yl)-3-oxoprop-1-en-1-yl)-13-phenyl-9,10-dihydro-9,10-[3,4]epipyrroloanthracene-12,14-dione]
cell viability (HG-3 cells [4]; 10 µM): 3% | cell viability (PGA-1 cells [5]): 9%

O=C(C=CC12c3ccccc3C(c3ccccc31)C1C(=O)N(c3ccccc3)C(=O)C12)c1cccs1 (stereo not shown) [Compound 24q, 9-(E)-3-Oxo-3-(thiophen-2-yl)prop-1-en-1-yl)-13-phenyl-9,10-dihydro-9,10-[3,4]epipyrroloanthracene-12,14-dione]
cell viability (HG-3 cells [4]; 10 µM): 24%

O=C(C=CC12c3ccccc3C(c3ccccc31)C1C(=O)N(c3ccc(Cl)cc3)C(=O)C12)c1ccc(Br)cc1 (stereo not shown) [Compound 25a, (E)-9-(3-(4-Bromophenyl)-3-oxoprop-1-en-1-yl)-13-(4-chlorophenyl)-9,10-dihydro-9,10-[3,4]epipyrroloanthracene-12,14-dione]
cell viability (PGA-1 cells [5]): 33%

O=C(C=CC12c3ccccc3C(c3ccccc31)C1C(=O)N(c3ccc(Cl)cc3)C(=O)C12)c1ccc(I)cc1 (stereo not shown) [Compound 25g, (E)-13-(4-Chlorophenyl)-9-(3-(4-iodophenyl)-3-oxoprop-1-en-1-yl)-9,10-dihydro-9,10-[3,4]epipyrroloanthracene-12,14-dione]
cell viability (PGA-1 cells [5]): 33%

O=C(/C=C/C12c3ccccc3C(c3ccccc31)C1C(=O)N(c3ccc(Cl)cc3)C(=O)C12)c1ccc(F)cc1 (stereo not shown) [Compound 25h, (E)-13-(4-Chlorophenyl)-9-(3-(4-fluorophenyl)-3-oxoprop-1-en-1-yl)-9,10-dihydro-9,10[3,4]epipyrroloanthracene-12,14-dione]
cell viability (HG-3 cells [4]; 10 µM): 35%

O=C(C=CC12c3ccccc3C(c3ccccc31)C1C(=O)N(c3ccc(Cl)cc3)C(=O)C12)c1ccc(Cl)cc1 (stereo not shown) [Compound 25l, (E)-13-(4-Chlorophenyl)-9-(3-(4-chlorophenyl)-3-oxoprop-1-en-1-yl)-9,10-dihydro-9,10-[3,4]epipyrroloanthracene-12,14-dione]
cell viability (PGA-1 cells [5]): 24%

O=C(C=CC12c3ccccc3C(c3ccccc31)C1C(=O)N(c3ccc(Cl)cc3)C(=O)C12)c1ccco1 (stereo not shown) [Compound 25o, (E)-13-(4-Chlorophenyl)-9-(3-(furan-2-yl)-3-oxoprop-1-en-1-yl)-9,10-dihydro-9,10-[3,4]epipyrroloanthracene-12,14-dione]
cell viability (HG-3 cells [4]; 10 µM): 5% | cell viability (PGA-1 cells [5]): 14%

O=C(C=CC12c3ccccc3C(c3ccccc31)C1C(=O)N(c3ccc(Cl)cc3)C(=O)C12)c1cccs1 (stereo not shown) [Compound 25q, (E)-13-(4-Chlorophenyl)-9-(3-oxo-3-(thiophen-2-yl)prop-1-en-1-yl)-9,10-dihydro-9,10-[3,4]epipyrroloanthracene-12,14-dione]
cell viability (HG-3 cells [4]; 10 µM): 47%

O=C(/C=C/C12c3ccccc3C(c3ccccc31)C1C(=O)N(c3ccc(C(=O)c4ccccc4)cc3)C(=O)C12)c1ccc(Br)cc1 (stereo not shown) [Compound 26a, (E)-13-(4-Benzoylphenyl)-9-(3-(4-bromophenyl)-3-oxoprop-1-en-1-yl)-9,10-dihydro-9,10-[3,4]epipyrroloanthracene-12,14-dione]
Half-life pH 4 ([6]; pH 4 buffer): > 24 h | % remaining 24 h pH 4 ([6]; pH 4 buffer, 24 h, HPLC): 64% and 63.95% | Half-life pH 7.4 ([6]; pH 7.4 buffer): > 24 h | % remaining 24 h pH 7.4 ([6]; pH 7.4 buffer, 24 h, HPLC): 61% and 61.03% | Half-life pH 9 ([6]; pH 9 buffer): > 24 h | % remaining 24 h pH 9 ([6]; pH 9 buffer, 24 h, HPLC): 66% | cell viability (HG-3 cells [4]; 1 µM): 55% | cell viability (HG-3 cells [4]; 10 µM): 31% | cell viability (PGA-1 cells [5]): 29% | decrease in cell viability compared to 26f (PGA-1 cells [2]; PGA-1, 1 µM): 70% | decrease in cell viability compared to 26f (PGA-1 cells [2]; PGA-1, 10 µM): 20% | decrease in cell viability compared to 26f (HG-3 cells [3]; HG-3, 1 µM): 64% | decrease in cell viability compared to 26f (HG-3 cells [3]; HG-3, 10 µM): 29%

O=C(/C=C/C12c3ccccc3C(c3ccccc31)C1C(=O)N(c3ccc(C(=O)c4ccccc4)cc3)C(=O)C12)c1ccncc1 (stereo not shown) [Compound 26m, (E)-13-(4-Benzoylphenyl)-9-(3-oxo-3-(pyridin-4-yl)prop-1-en-1-yl)-9,10-dihydro-9,10-[3,4]epipyrroloanthracene-12,14-dione]
cell viability (HG-3 cells [4]; 10 µM): 27% | cell viability (PGA-1 cells [5]): 17% | decrease in cell viability compared to 26f (PGA-1 cells [2]; PGA-1, 1 µM): 64% | decrease in cell viability compared to 26f (HG-3 cells [3]; HG-3, 1 µM): 64% | decrease in cell viability compared to 26f (HG-3 cells [3]; HG-3, 10 µM): 59%

O=C(c1ccccc1)c1ccc(N2C(=O)C3C4c5ccccc5C(C=CC(=O)c5ccco5)(c5ccccc54)C3C2=O)cc1 (stereo not shown) [Compound 26o, (E)-13-(4-Benzoylphenyl)-9-(3-(furan-2-yl)-3-oxoprop-1-en-1-yl)-9,10-dihydro-9,10-[3,4]epipyrroloanthracene-12,14-dione]
cell viability (HG-3 cells [4]; 10 µM): 15% | cell viability (PGA-1 cells [5]): 9%

O=C(c1ccccc1)c1ccc(N2C(=O)C3C4c5ccccc5C(/C=C/C(=O)c5cccs5)(c5ccccc54)C3C2=O)cc1 (stereo not shown) [Compound 26q, (E)-13-(4-Benzoylphenyl)-9-(3-oxo-3-(thiophen-2-yl)prop-1-en-1-yl)-9,10-dihydro-9,10-[3,4]epipyrroloanthracene-12,14-dione]
cell viability (HG-3 cells [4]; 10 µM): 56%

Nc1nc(F)nc2c1ncn2[C@@H]1O[C@H](CO)[C@@H](O)[C@@H]1O [Fludarabine, fludarabine, reference compound]
pIC50 (PGA-1 cells [2]; Homo sapiens, 24 h): 4.49 | pIC50 ([1]; Homo sapiens, CLL cell): 4.52 | pIC50 (HG-3 cells [3]; Homo sapiens): 4.55

(E)-13-(4-Chlorophenyl)-9-(3-(4-nitrophenyl)-3-oxoprop-1-en-1-yl)-9,10-dihydro-9,10-[3,4]epipyrroloanthracene-12,14-dione [Compound 25b]
cell viability (HG-3 cells [4]; 10 µM): 35% | cell viability (PGA-1 cells [5]): 34%

(E)-13-(4-Chlorophenyl)-9-(3-oxo-3-(pyridin-4-yl)prop-1-en-1-yl)-9,10-dihydro-9,10-[3,4]epipyrroloanthracene-12,14-dione [Compound 25m]
cell viability (HG-3 cells [4]; 10 µM): 8% | cell viability (PGA-1 cells [5]): 28%
